The source of these data is PubChem BioAssay AID256 (DTP/NCI, 2004).

Values joined by “and” are separate entries in the source; they are usually repeats but may differ in a detail not shown here. Equal entries are not always repeated. Inconclusive results and toxic doses are left out.

This experiment relates to CD2F1 mice, L1210 leukemia ip, survival T/C. As to the kind of experiment: NCI In Vivo Anticancer Drug Screen. Data for tumor model L1210 Leukemia (intraperitoneal) in CD2F1 (CDF1) mice. The settings on record: higher = longer survival. The method, boiled down:
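Vehicle-treated tumor-bearing mice served as controls (C) for compound-treated mice (T). Reported figure is T divided by C.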

[1] abbreviates: endpoint: mean survival time, dose: 100.0 mg/kg/injection, schedule: Q01DX001 (ip), vehicle: saline with Tween-80.
[2] abbreviates: endpoint: mean survival time, dose: 200.0 mg/kg/injection, schedule: Q01DX001 (ip), vehicle: saline with Tween-80.
Setting [3] is: endpoint: mean survival time, dose: 400.0 mg/kg/injection, schedule: Q01DX001 (ip), vehicle: saline with Tween-80.
The mark [4] stands for this setting: endpoint: mean survival time, dose: 100.0 mg/kg/injection, schedule: Q01DX009 (ip), vehicle: saline with Tween-80.
The mark [5] stands for this setting: endpoint: mean survival time, dose: 200.0 mg/kg/injection, schedule: Q01DX009 (ip), vehicle: saline with Tween-80.
Where [6] appears, read: endpoint: mean survival time, dose: 400.0 mg/kg/injection, schedule: Q01DX009 (ip), vehicle: saline with Tween-80.
Where [7] appears, read: endpoint: mean survival time, dose: 25.0 mg/kg/injection, schedule: Q01DX009 (ip), vehicle: other.
Setting [8] is: endpoint: mean survival time, dose: 50.0 mg/kg/injection, schedule: Q01DX009 (ip), vehicle: other.
The mark [9] stands for this setting: endpoint: mean survival time, dose: 100.0 mg/kg/injection, schedule: Q01DX009 (ip), vehicle: other.
Setting [10] is: endpoint: mean survival time, dose: 200.0 mg/kg/injection, schedule: Q01DX009 (ip), vehicle: other.
[11] abbreviates: endpoint: mean survival time, dose: 100.0 mg/kg/injection, schedule: Q04DX003 (ip), vehicle: saline.
Setting [12] is: endpoint: mean survival time, dose: 200.0 mg/kg/injection, schedule: Q04DX003 (ip), vehicle: saline.
Setting [13] is: endpoint: mean survival time, dose: 400.0 mg/kg/injection, schedule: Q04DX003 (ip), vehicle: saline.
Setting [14] is: endpoint: mean survival time, dose: 50.0 mg/kg/injection, schedule: Q01DX009 (ip), vehicle: saline with Tween-80.
[15] abbreviates: endpoint: mean survival time, dose: 100.0 mg/kg/injection, schedule: Q04DX003 (ip), vehicle: saline with Tween-80.
Where [16] appears, read: endpoint: mean survival time, dose: 200.0 mg/kg/injection, schedule: Q04DX003 (ip), vehicle: saline with Tween-80.
The mark [17] stands for this setting: endpoint: mean survival time, dose: 100.0 mg/kg/injection, schedule: Q01DX001 (ip), vehicle: saline.
Setting [18] is: endpoint: mean survival time, dose: 400.0 mg/kg/injection, schedule: Q04DX003 (ip), vehicle: saline with Tween-80.

In the case of `OCC1OC(n2cc(I)c3c2ncn2nnnc32)C(O)C1O` (centres undefined), the T/C is, setting by setting: (endpoint: mean survival time, dose: 1.56 mg/kg/injection, schedule: Q01DX005 (ip), vehicle: water) 88 % of control; (endpoint: mean survival time, dose: 3.13 mg/kg/injection, schedule: Q01DX005 (ip), vehicle: water) 95 % of control; (endpoint: mean survival time, dose: 6.25 mg/kg/injection, schedule: Q01DX005 (ip), vehicle: water) 95 % of control; (endpoint: mean survival time, dose: 12.5 mg/kg/injection, schedule: Q01DX005 (ip), vehicle: water) 98 % of control; (endpoint: mean survival time, dose: 25.0 mg/kg/injection, schedule: Q01DX005 (ip), vehicle: water) 87 % of control and 97 % of control; (endpoint: mean survival time, dose: 50.0 mg/kg/injection, schedule: Q01DX005 (ip), vehicle: water) 97 % of control.

For `O=C(Cl)c1ccccc1/C=C/c1ccc([N+](=O)[O-])cc1`, the T/C was 105 % of control under setting [1], 103 % of control under setting [2] and 96 % of control under setting [3].

Consider `CC1=[S+]c2ccccc2C2Nc3ccccc3C12` (centres undefined), for which the T/C is, setting by setting: (endpoint: mean survival time, dose: 100.0 mg/kg/injection, schedule: Q04DX003 (ip), vehicle: acetone) 103 % of control; (endpoint: mean survival time, dose: 200.0 mg/kg/injection, schedule: Q04DX003 (ip), vehicle: acetone) 105 % of control.

As to `O=C1N(C2CCCCC2)CC2C(c3ccccc3)N(c3ccccc3)NC12O` (centres undefined), the T/C was 92 % of control under setting [1]; 97 % of control under setting [4]; 91 % of control under setting [2]; 98 % of control under setting [5]; 88 % of control under setting [3]; 108 % of control under setting [6].

Turning to `COC(=O)CCCc1c[nH]c2ccccc12`, the T/C reads like this: (endpoint: mean survival time, dose: 100.0 mg/kg/injection, schedule: Q04DX003 (ip), vehicle: other) 101 % of control; (endpoint: mean survival time, dose: 200.0 mg/kg/injection, schedule: Q04DX003 (ip), vehicle: other) 115 % of control; (endpoint: mean survival time, dose: 400.0 mg/kg/injection, schedule: Q04DX003 (ip), vehicle: other) 94 % of control.

For `Cc1cc(N(CCOS(C)(=O)=O)CCOS(C)(=O)=O)ccc1N=Nc1ccccc1`, the T/C was 106 % of control (endpoint: mean survival time, dose: 3.12 mg/kg/injection, schedule: Q01DX009 (ip), vehicle: Klucel (hydroxypropylcellulose) (HPC)); 113 % of control (endpoint: mean survival time, dose: 6.25 mg/kg/injection, schedule: Q01DX009 (ip), vehicle: Klucel (hydroxypropylcellulose) (HPC)); 114 % of control and 124 % of control (endpoint: mean survival time, dose: 12.5 mg/kg/injection, schedule: Q01DX009 (ip), vehicle: Klucel (hydroxypropylcellulose) (HPC)); 101 % of control (endpoint: mean survival time, dose: 25.0 mg/kg/injection, schedule: Q01DX009 (ip), vehicle: Klucel (hydroxypropylcellulose) (HPC)); 95 % of control (endpoint: mean survival time, dose: 50.0 mg/kg/injection, schedule: Q01DX009 (ip), vehicle: Klucel (hydroxypropylcellulose) (HPC)).

Take `S=C(NCCSC(=S)Nc1ccccc1)Nc1ccccc1`: the T/C was 91 % of control under setting [4], 89 % of control under setting [5] and 106 % of control under setting [6].

Take `CCCCCCCCCCSCC(N)C(=O)O` (centres undefined): the T/C reads like this: under setting [7], 88 % of control; under setting [8], 88 % of control; under setting [9], 94 % of control; under setting [10], 94 % of control; (endpoint: mean survival time, dose: 400.0 mg/kg/injection, schedule: Q01DX009 (ip), vehicle: other) 97 % of control.

For `COc1ccc(CC(C)NC(=O)c2ccc(OC)c(OC)c2)cc1OC` (centres undefined), the T/C (endpoint: mean survival time, dose: 12.5 mg/kg/injection, schedule: Q01DX009 (ip), vehicle: other) is 105 % of control; the T/C under setting [7] is 94 % of control; the T/C under setting [8] is 96 % of control; the T/C under setting [9] is 93 % of control; the T/C under setting [10] was 94 % of control.

On to `C[PH+](C)C.C[PH+](C)C.[Au]`, for which the T/C runs as follows: (endpoint: median survival time, dose: 0.62 mg/kg/injection, schedule: Q01DX009 (ip), vehicle: saline) 101 % of control; (endpoint: median survival time, dose: 1.25 mg/kg/injection, schedule: Q01DX009 (ip), vehicle: saline) 101 % of control; (endpoint: median survival time, dose: 2.5 mg/kg/injection, schedule: Q01DX009 (ip), vehicle: saline) 101 % of control; (endpoint: median survival time, dose: 5.0 mg/kg/injection, schedule: Q01DX009 (ip), vehicle: saline) 101 % of control; (endpoint: median survival time, dose: 10.0 mg/kg/injection, schedule: Q01DX009 (ip), vehicle: saline) 101 % of control.

For `c1cc(-n2nnc3cnccc32)ccn1`, the T/C is, setting by setting: (endpoint: mean survival time, dose: 25.0 mg/kg/injection, schedule: Q04DX003 (ip), vehicle: saline) 102 % of control; (endpoint: mean survival time, dose: 50.0 mg/kg/injection, schedule: Q04DX003 (ip), vehicle: saline) 104 % of control.

Regarding `O=C(Nc1ccc(S(=O)(=O)F)c(Cl)c1)Oc1ccccc1`, the T/C under setting [4] was 101 % of control; the T/C under setting [11] was 95 % of control; the T/C under setting [5] is 100 % of control; the T/C under setting [12] was 95 % of control; the T/C under setting [6] was 97 % of control; the T/C under setting [13] is 101 % of control.

In the case of `O=C(Nc1ccc(Cl)c(Cl)c1)Nc1c(Oc2ccc(Cl)c(Cl)c2)ccc(Cl)c1S(=O)(=O)O`, the T/C was 109 % of control (endpoint: mean survival time, dose: 3.12 mg/kg/injection, schedule: Q01DX009 (ip), vehicle: saline with Tween-80); 109 % of control (endpoint: mean survival time, dose: 6.25 mg/kg/injection, schedule: Q01DX009 (ip), vehicle: saline with Tween-80); 110 % of control (endpoint: mean survival time, dose: 12.5 mg/kg/injection, schedule: Q01DX009 (ip), vehicle: saline with Tween-80); 113 % of control (endpoint: mean survival time, dose: 25.0 mg/kg/injection, schedule: Q01DX009 (ip), vehicle: saline with Tween-80); 104 % of control under setting [14]; 113 % of control under setting [4]. Moreover, the T/C under setting [15] is 108 % of control and the T/C under setting [16] was 101 % of control.

In the case of `C/C(=N\O)c1ccc2ccc3ccccc3c2c1`, the T/C by setting is: under setting [17], 100 % of control; under setting [11], 102 % of control; (endpoint: mean survival time, dose: 200.0 mg/kg/injection, schedule: Q01DX001 (ip), vehicle: saline) 95 % of control; under setting [12], 100 % of control; (endpoint: mean survival time, dose: 400.0 mg/kg/injection, schedule: Q01DX001 (ip), vehicle: saline) 100 % of control; under setting [13], 97 % of control.

Take `CCOC/C=C\C1CCCC1`: the T/C is 94 % of control under setting [14], 100 % of control under setting [4] and 102 % of control under setting [5].

On to `NCCc1ccncc1`, for which the T/C is, setting by setting: (endpoint: mean survival time, dose: 100.0 mg/kg/injection, schedule: Q04DX002 (ip), vehicle: saline) 92 % of control; (endpoint: mean survival time, dose: 200.0 mg/kg/injection, schedule: Q04DX002 (ip), vehicle: saline) 92 % of control; (endpoint: mean survival time, dose: 400.0 mg/kg/injection, schedule: Q04DX002 (ip), vehicle: saline) 111 % of control.

With `CN(C)CCc1ccc(O)cc1`, the T/C is 103 % of control (endpoint: mean survival time, dose: 25.0 mg/kg/injection, schedule: Q01DX001 (ip), vehicle: saline); 105 % of control (endpoint: mean survival time, dose: 50.0 mg/kg/injection, schedule: Q01DX001 (ip), vehicle: saline); 98 % of control and 100 % of control under setting [17]; 97 % of control under setting [4]; 102 % of control under setting [15]; 102 % of control under setting [5]. Also, the T/C by setting is: under setting [16], 96 % of control; under setting [6], 101 % of control; under setting [18], 104 % of control.

For the compound `NCc1ccc(-n2cnc3c(=O)[nH]c(N)nc32)cc1`, the T/C is, setting by setting: (endpoint: mean survival time, dose: 50.0 mg/kg/injection, schedule: Q04DX002 (ip), vehicle: saline with Tween-80) 90 % of control; (endpoint: mean survival time, dose: 100.0 mg/kg/injection, schedule: Q04DX002 (ip), vehicle: saline with Tween-80) 107 % of control; (endpoint: mean survival time, dose: 200.0 mg/kg/injection, schedule: Q04DX002 (ip), vehicle: saline with Tween-80) 101 % of control.

In the case of `Cc1[nH]ccc2c(C)c3nc4ccccc4c3cc12`, the T/C by setting is: under setting [14], 152 % of control; under setting [4], 117 % of control; under setting [16], 96 % of control.

Turning to `CC1=C/C(=N\Nc2ccccc2)C(C(O)(C(F)(F)Cl)C(F)(F)Cl)C(C)(C)C1` (centres undefined), the T/C was 96 % of control under setting [15], 94 % of control under setting [16] and 93 % of control under setting [18].
